In ChEMBL document CHEMBL5537127, “Design and synthesis of novel hederagonic acid analogs as potent anti-inflammatory compounds capable of protecting against LPS-induced acute lung injury” (Eur J Med Chem, 2024):

Key:
[1] = Cytotoxicity against mouse RAW264.7 cells assessed as cell viability at 40 uM incubated for 24 hrs by MTT assay relative to control; format: toxicity, cell-based; conditions: read-out: Activity
RAW264.7 [2] = experiment: Anti-inflammatory activity against LPS-induced mouse RAW264.7 cells assessed as inhibition of NO production at 10 uM preincubated for 2 hrs followed by LPS addition and measured after 24 hrs by Griess reagent-based microplate reader analysis relative to control; format: functional; set-up: scale not given: the % may be the effect or the level left; conditions: time 26 hrs
RAW264.7 [3] = experiment: Anti-inflammatory activity against LPS-induced mouse RAW264.7 cells assessed as inhibition of NO production at 20 uM preincubated for 2 hrs followed by LPS addition and measured after 24 hrs by Griess reagent-based microplate reader analysis relative to control; format: functional; set-up: scale not given: the % may be the effect or the level left; conditions: time 26 hrs

Compound	viability at 24 h, 40 µM [1] [%]	Activity (RAW264.7 [2]) [%]	Activity (RAW264.7 [3]) [%]
CC1(C)CC[C@]2(C(=O)OCc3ccccc3)CC[C@]3(C)C(=CC[C@@H]4[C@@]5(C)CCC(=O)[C@@](C)(COC(=O)CNC(=O)CNC(=O)CCCC[C@@H]6CCSS6)[C@@H]5CC[C@]43C)[C@@H]2C1	78.5	–	–
COCC(=O)OC[C@]1(C)C(=O)CC[C@@]2(C)[C@H]1CC[C@]1(C)[C@@H]2CC=C2[C@@H]3CC(C)(C)CC[C@]3(C(=O)OCc3ccccc3)CC[C@]21C	105	42.74	61.15
CC1(C)CC[C@]2(C(=O)OCc3ccccc3)CC[C@]3(C)C(=CC[C@@H]4[C@@]5(C)C/C(=C/c6ccccc6[N+](=O)[O-])C(=O)[C@@](C)(CO)[C@@H]5CC[C@]43C)[C@@H]2C1	65	1.44	7.94
CC(C)=CC(=O)OC[C@]1(C)C(=O)CC[C@@]2(C)[C@H]1CC[C@]1(C)[C@@H]2CC=C2[C@@H]3CC(C)(C)CC[C@]3(C(=O)OCc3ccccc3)CC[C@]21C	95	16.39	25.68
CC1(C)CC[C@]2(C(=O)OCc3ccccc3)CC[C@]3(C)C(=CC[C@@H]4[C@@]5(C)C/C(=C/c6ccccc6Br)C(=O)[C@@](C)(CO)[C@@H]5CC[C@]43C)[C@@H]2C1	92.2	5.33	12.61
CC1(C)CC[C@]2(C(=O)OCc3ccccc3)CC[C@]3(C)C(=CC[C@@H]4[C@@]5(C)C/C(=C/c6ccc([N+](=O)[O-])cc6)C(=O)[C@@](C)(CO)[C@@H]5CC[C@]43C)[C@@H]2C1	119	–	–
CC1(C)CC[C@]2(C(=O)O)CC[C@]3(C)C(=CC[C@@H]4[C@@]5(C)CCC(=O)[C@@](C)(CO)[C@@H]5CC[C@]43C)[C@@H]2C1	109	–	–
CC1(C)CC[C@]2(C(=O)OCc3ccccc3)CC[C@]3(C)C(=CC[C@@H]4[C@@]5(C)C/C(=C/c6cccs6)C(=O)[C@@](C)(CO)[C@@H]5CC[C@]43C)[C@@H]2C1	72.1	–	–
CC1(C)CC[C@]2(C(=O)OCc3ccccc3)CC[C@]3(C)C(=CC[C@@H]4[C@@]5(C)CCC(=O)[C@@](C)(COC(=O)CCCCNC(=O)CCCC[C@@H]6CCSS6)[C@@H]5CC[C@]43C)[C@@H]2C1	31.6	–	–
CC1(C)CC[C@]2(C(=O)OCc3ccccc3)CC[C@]3(C)C(=CC[C@@H]4[C@@]5(C)CCC(=O)[C@@](C)(COC(=O)C(F)(F)F)[C@@H]5CC[C@]43C)[C@@H]2C1	4.58	–	–
CC1(C)CC[C@]2(C(=O)OCc3ccccc3)CC[C@]3(C)C(=CC[C@@H]4[C@@]5(C)C/C(=C/c6ccccc6)C(=O)[C@@](C)(CO)[C@@H]5CC[C@]43C)[C@@H]2C1	68.1	–	–
CC1(C)CC[C@]2(C(=O)OCc3ccccc3)CC[C@]3(C)C(=CC[C@@H]4[C@@]5(C)CCC(=O)[C@@](C)(COC(=O)CCc6ccccc6)[C@@H]5CC[C@]43C)[C@@H]2C1	76.1	–	–
CC1(C)CC[C@]2(C(=O)OCc3ccccc3)CC[C@]3(C)C(=CC[C@@H]4[C@@]5(C)C/C(=C/c6nccs6)C(=O)[C@@](C)(CO)[C@@H]5CC[C@]43C)[C@@H]2C1	62.8	–	–
CC1(C)CC[C@]2(C(=O)OCc3ccccc3)CC[C@]3(C)C(=CC[C@@H]4[C@@]5(C)CCC(=O)[C@@](C)(COC(=O)CCN6CCCCC6)[C@@H]5CC[C@]43C)[C@@H]2C1	3.82	–	–
CC1(C)CC[C@]2(C(=O)OCc3ccccc3)CC[C@]3(C)C(=CC[C@@H]4[C@@]5(C)C/C(=C/c6cncs6)C(=O)[C@@](C)(CO)[C@@H]5CC[C@]43C)[C@@H]2C1	64.8	–	–
CC1(C)CC[C@]2(C(=O)OCc3ccccc3)CC[C@]3(C)C(=CC[C@@H]4[C@@]5(C)C/C(=C/c6ccsc6)C(=O)[C@@](C)(CO)[C@@H]5CC[C@]43C)[C@@H]2C1	66.9	–	–
CC1(C)CC[C@]2(C(=O)OCc3ccccc3)CC[C@]3(C)C(=CC[C@@H]4[C@@]5(C)C/C(=C/c6cscn6)C(=O)[C@@](C)(CO)[C@@H]5CC[C@]43C)[C@@H]2C1	85	–	–
